Test results published in US8084457B2, “Pharmaceutically active 4,6-disubstituted aminopyrimidine derivatives as modulators of protein kinases” (Lead Discovery Center GmbH, priority 2003, dated 2011).

How the values were obtained:
CDK1 = CDK1 (Homo sapiens, UniProt P06493); assay: General kinase assay, selectivity panel: CDK1; type: biochemical; details: 10 μM of compound, in comparison to DMSO (0% inhibition)
Procedure: (§1) The inhibitory effect of compounds according to the present invention on the activity of protein kinases, depicted in Table 1, can be measured according to the following protocol:
(§2) Pipettinq Sequence: • 1) Add 10 μl 4 fold concentrated Substrate+4 fold concentrated ATP in 3 fold concentrated Reaction Buffer to each well of Assay Plate • 2) Add 10 μl 4 fold concentrated inhibitor in 4% DMSO in H2O to each well except to C− and C+ wells • 3) Add 10 μl 4% DMSO in H2O to C− and C+ wells • 4) Add 10 μl 500 mM EDTA in H2O to − wells • 5) Add 10 μl 50 μCi/ml Adenosine 5′-[γ-^33P]triphosphate in H2O to each well • 6) Add 10 μl 4 fold concentrated kinase in Reaction Buffer to each well • 7) Incubate 1 hr at room temperature • 8) Add 10 μl 50 mM EDTA in H2O to each well except to C− wells • 9) Prepare MAPH plates by adding 200 μl 0.75% H3PO4 to each well • 10) Exhaust 0.75% H3PO4 using Millipore vacuum station • 11) Add 60 μl 0.75% H3PO4 to each well of MAPH Filter Plate • 12) Transfer 30 μl sample per well from Assay Plate to corresponding well of MAPH Filter Plate • 13) Incubate 30 min at room temperature • 14) Wash each well of MAPH Filter Plates 3× with 200 μl 0.75% H3PO4 using Millipore vacuum station. • 15) Add 20 μl Scintillation Liquid to each well of MAPH Filter Plate • 16) Seal MAPH Filter Plate • 17) Store MAPH Filter Plate 30 min in darkness • 18) Quantify radioactivity
(§3) The activity of these protein kinases is depicted as % inhibition in the presence of 10 μM of compound in comparison to DMSO (0% inhibition).

GSK-3β = GSK-3β (Homo sapiens, UniProt P49841); assay: General kinase assay, selectivity panel: GSK-3β; type: biochemical; details: 10 μM of compound, in comparison to DMSO (0% inhibition)
Sequence of GSK-3β (P49841 whole entry, species assumed): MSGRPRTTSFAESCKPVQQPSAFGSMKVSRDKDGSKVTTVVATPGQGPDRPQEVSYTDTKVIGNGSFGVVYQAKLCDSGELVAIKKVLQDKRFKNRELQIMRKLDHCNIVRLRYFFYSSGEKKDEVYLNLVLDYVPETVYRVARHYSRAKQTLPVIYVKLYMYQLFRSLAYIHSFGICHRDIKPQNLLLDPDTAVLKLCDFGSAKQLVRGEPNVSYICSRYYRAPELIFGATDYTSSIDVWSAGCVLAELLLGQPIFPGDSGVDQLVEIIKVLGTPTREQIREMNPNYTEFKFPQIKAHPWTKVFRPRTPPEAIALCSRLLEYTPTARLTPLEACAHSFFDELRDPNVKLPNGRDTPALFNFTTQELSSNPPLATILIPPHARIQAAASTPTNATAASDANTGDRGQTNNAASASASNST
Procedure: as §1, §2, §3

HCMV strain AD169 = assay: HCMV replication assay in HFF cells (EGFP); type: cell-based; details: strain AD 169 in HFF cells
Procedure: Human foreskin fibroblasts (HFF) cell culture were grown in DMEM containing 10% FCS. For HCMV-replication assays, HFF cells were infected with HCMV strain AD169 producing EGFP (HCMV AD169-GFP; 27). 1 h post infection, medium was changed with medium containing the indicated compound concentration (0.3 μM, 1 μM and 3 μM, respectively) After incubation of 7 days cells were lysed (in 25 mM Tris, pH 7.5, 2 mM DTT, 1% Triton X-100 and 10% glycerol) and analysed for EGFP content in a Wallac Victor fluorescence detector.

PDGFR = assay: General kinase assay, selectivity panel: PDGFR; type: biochemical; details: 10 μM of compound, in comparison to DMSO (0% inhibition)
Procedure: as §1, §2, §3

c-Kit = c-Kit (Homo sapiens, UniProt P10721); assay: General kinase assay, selectivity panel: c-Kit; type: biochemical; details: 10 μM of compound, in comparison to DMSO (0% inhibition)
Sequence of c-Kit (P10721 26-976): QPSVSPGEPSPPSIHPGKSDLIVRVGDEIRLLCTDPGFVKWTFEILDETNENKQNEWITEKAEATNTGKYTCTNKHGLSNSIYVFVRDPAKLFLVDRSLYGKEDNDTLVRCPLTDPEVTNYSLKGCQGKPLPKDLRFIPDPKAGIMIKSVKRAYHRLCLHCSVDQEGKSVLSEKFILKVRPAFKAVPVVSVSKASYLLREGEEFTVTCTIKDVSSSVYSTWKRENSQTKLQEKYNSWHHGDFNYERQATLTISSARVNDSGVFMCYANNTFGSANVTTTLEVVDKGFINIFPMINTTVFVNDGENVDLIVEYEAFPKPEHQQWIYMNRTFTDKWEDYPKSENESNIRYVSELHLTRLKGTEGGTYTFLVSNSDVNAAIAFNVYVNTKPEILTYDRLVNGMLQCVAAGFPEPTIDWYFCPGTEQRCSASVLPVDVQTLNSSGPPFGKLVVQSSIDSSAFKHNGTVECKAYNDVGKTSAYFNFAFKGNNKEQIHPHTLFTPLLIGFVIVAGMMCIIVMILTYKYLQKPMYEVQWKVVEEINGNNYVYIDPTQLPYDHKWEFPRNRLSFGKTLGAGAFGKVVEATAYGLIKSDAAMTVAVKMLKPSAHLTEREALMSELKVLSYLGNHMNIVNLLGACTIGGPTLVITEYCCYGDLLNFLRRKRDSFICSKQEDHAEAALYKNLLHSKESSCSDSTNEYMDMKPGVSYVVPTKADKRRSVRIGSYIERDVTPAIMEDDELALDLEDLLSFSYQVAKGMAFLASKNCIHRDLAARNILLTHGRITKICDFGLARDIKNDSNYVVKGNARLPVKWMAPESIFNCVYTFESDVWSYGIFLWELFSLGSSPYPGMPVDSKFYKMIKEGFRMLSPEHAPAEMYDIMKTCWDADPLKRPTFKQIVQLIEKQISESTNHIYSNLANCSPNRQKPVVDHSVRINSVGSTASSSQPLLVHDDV
Procedure: as §1, §2, §3

p56 Lck = p56 Lck (Homo sapiens, UniProt P06239); assay: General kinase assay, selectivity panel: p56 Lck; type: biochemical; details: 10 μM of compound, in comparison to DMSO (0% inhibition)
Sequence of p56 Lck (P06239 whole entry): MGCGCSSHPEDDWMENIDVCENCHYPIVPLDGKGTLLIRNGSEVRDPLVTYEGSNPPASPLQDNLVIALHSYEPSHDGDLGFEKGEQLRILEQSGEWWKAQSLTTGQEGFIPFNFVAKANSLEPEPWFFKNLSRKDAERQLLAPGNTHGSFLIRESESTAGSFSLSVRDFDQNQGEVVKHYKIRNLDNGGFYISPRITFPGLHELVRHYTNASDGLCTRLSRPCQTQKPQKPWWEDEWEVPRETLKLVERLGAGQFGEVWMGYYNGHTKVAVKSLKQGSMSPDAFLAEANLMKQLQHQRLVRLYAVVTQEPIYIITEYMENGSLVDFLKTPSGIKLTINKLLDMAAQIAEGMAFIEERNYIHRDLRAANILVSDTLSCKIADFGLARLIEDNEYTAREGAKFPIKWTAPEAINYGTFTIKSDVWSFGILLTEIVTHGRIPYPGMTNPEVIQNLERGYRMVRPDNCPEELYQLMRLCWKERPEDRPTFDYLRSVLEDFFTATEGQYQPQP
Procedure: as §1, §2, §3

EGFR = EGFR (Homo sapiens, UniProt P00533); assay: General kinase assay, selectivity panel: EGFR; type: biochemical; details: 10 μM of compound, in comparison to DMSO (0% inhibition)
Sequence of EGFR (P00533 25-1210, species assumed): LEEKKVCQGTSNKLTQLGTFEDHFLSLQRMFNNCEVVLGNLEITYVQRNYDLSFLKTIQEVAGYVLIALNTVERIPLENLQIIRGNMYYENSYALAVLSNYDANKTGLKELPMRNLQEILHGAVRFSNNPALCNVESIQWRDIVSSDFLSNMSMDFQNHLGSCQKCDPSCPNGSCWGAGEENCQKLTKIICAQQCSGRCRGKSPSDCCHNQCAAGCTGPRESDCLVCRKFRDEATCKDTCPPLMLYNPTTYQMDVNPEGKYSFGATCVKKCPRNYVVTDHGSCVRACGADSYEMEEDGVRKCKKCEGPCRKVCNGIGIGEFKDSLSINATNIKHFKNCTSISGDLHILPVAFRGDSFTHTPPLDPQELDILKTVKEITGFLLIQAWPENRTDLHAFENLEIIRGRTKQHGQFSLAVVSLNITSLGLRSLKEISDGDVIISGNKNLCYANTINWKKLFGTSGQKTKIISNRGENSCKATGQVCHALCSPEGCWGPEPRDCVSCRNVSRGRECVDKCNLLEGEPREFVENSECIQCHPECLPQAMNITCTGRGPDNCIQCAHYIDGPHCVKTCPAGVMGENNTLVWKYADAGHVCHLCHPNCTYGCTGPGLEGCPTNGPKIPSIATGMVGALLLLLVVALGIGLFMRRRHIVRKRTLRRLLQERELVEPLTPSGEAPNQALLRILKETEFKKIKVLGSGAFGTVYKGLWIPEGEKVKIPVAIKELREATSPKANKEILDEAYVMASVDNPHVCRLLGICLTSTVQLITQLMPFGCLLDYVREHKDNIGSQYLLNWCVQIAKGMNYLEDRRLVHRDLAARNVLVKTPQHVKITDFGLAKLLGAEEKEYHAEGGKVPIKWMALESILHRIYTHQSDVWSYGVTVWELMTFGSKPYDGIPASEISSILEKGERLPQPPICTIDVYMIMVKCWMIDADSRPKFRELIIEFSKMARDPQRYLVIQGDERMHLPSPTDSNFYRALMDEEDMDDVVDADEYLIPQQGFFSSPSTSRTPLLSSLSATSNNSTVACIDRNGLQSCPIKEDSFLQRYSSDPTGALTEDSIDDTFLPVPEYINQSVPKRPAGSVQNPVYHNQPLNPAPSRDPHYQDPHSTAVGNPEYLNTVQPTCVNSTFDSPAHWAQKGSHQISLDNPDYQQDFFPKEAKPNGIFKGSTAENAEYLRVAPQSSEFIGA
Procedure: as §1, §2, §3

c-Src = c-Src (Homo sapiens, UniProt P12931); assay: General kinase assay, selectivity panel: c-Src; type: biochemical; details: 10 μM of compound, in comparison to DMSO (0% inhibition)
Procedure: as §1, §2, §3

Abl = Abl (Homo sapiens, UniProt P00519); assay: General kinase assay, selectivity panel: Abl; type: biochemical; details: 10 μM of compound, in comparison to DMSO (0% inhibition)
Sequence of Abl (P00519 whole entry, species assumed): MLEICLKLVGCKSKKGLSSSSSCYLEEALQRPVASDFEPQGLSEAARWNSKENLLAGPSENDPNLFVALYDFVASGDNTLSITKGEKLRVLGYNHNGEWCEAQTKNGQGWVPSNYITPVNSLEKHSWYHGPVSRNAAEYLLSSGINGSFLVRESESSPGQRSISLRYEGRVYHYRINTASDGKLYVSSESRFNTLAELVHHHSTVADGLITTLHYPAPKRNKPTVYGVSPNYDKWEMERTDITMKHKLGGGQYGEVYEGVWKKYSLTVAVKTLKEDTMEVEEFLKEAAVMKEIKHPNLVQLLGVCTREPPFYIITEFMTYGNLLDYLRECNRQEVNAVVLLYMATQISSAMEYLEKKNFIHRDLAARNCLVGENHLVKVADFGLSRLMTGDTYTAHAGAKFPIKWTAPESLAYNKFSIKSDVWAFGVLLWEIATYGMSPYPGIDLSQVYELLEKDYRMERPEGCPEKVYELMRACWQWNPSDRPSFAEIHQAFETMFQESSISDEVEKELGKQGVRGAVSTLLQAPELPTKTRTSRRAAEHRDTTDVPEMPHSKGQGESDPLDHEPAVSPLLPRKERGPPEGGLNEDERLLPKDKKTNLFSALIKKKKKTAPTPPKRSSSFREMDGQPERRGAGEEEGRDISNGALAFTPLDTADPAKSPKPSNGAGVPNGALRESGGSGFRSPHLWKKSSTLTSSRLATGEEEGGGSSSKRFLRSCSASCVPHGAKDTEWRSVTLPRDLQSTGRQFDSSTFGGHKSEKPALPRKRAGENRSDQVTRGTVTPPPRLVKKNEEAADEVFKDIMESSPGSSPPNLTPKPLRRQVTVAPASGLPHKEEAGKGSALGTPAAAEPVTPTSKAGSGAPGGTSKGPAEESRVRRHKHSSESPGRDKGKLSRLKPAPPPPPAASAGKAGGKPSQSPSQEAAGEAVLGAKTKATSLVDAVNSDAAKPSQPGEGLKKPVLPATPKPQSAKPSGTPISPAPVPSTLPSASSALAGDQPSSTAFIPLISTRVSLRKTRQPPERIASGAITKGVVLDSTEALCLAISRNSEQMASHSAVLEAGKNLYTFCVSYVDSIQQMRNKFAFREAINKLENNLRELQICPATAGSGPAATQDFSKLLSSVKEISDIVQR
Procedure: as §1, §2, §3

cMet = cMet (Homo sapiens, UniProt P08581); assay: General kinase assay, selectivity panel: cMet; type: biochemical; details: 10 μM of compound, in comparison to DMSO (0% inhibition)
Procedure: as §1, §2, §3

RSK1 = RSK1 (Homo sapiens, UniProt Q15418); assay: General kinase assay, selectivity panel: RSK1; type: biochemical; details: 10 μM of compound, in comparison to DMSO (0% inhibition)
Procedure: as §1, §2, §3

HBV = HBV replication assay in HepG2-2.2.15 cells; type: cell-based
Procedure: To test anti—HBV-activity of compounds the HBV-producing cell line HepG2-2.2.15 (M. A. Sells, PNAS 1987, 84, 1005-1009) was used. 1.0×10^4 cells were seeded in 96-well microtiter plates in DMEM medium supplemented with 10% FCS. After incubation at 37° C. in 5% CO2 atmosphere for 24 hours the medium was replaced with fresh medium containing the appropriately diluted compound. 3 days later medium was replaced by freshly prepared inhibitor-containing medium and the cells were incubated for further 3 days. Subsequently 200 μl lysis buffer (50 mM Tris-Cl 7.5; 1 mM EDTA 8.0; 0.5% NP40) per well was added. To remove cell debris and […], lysate was centrifuged (15000 rpm, 10 min, 4° C.). Cellular and viral RNA was removed by addition of 2 μl of RNase. 100 μl of the samples were spotted onto an uncharged nylon membrane pre-wetted with PBS (phosphate-buffered saline) using a 96 well-blotting chamber (MINIfold Dot-Blot, Schleicher&Schüll). After further washing with 200 μl PBS per well the membrane was treated twice with 0.5 M NaOH, 1.5 M NaCl (2 min) and 4 times with 0.5 M Tris 7.5, 3 M NaCl (1 min). The nucleic acids were fixed by UV-treatment and used for hybridisabon with a radioactive HBV-fragment prepared from the overgenome-length HBV-plasmid pT-HBV1.3 (L. G. Guidotti et al., Journal of Virology 1995., 69(10), 6158-6169).
The fixed membrane was pre-hybridized in a standard hybridisation buffer (50% formamide, 5×SSPE, 10×Denhards, 1% SDS, 100 μg/ml salmon sperm DNA) for at least 3 hours at 42° C. and hybridised overnight against the labelled HBV-fragment. The preparation of the HBV-fragment with the “Random primers DNA labelling system” (Invitrogen) was done according to the manufacturer's instructions. Hybridized filter were washed at room temperature with 2×SSC, at 62° C. with 2×SSC, 0.5% SDS and at 62° C. with 0.5×SSC, 0.5% SDS. Each washing step was carried out twice. The intensity of the HBV-DNA was quantified using a phosphoimager (Fuji). […] Absorbance was monitored at 570 nm and 600 nm wavelength.

[1] = test system: NFκB-dependent transcriptional activity; assay: NFκB-dependent transcriptional activity (NIH 3T3 75E 11/300D8 cell line); type: cell-based
From the text: NFκB-dependent Transcriptional Activity:
The used NIH 3T3 75E 11/300D8 cell line is described elsewhere (J. Eickhoff et al., Journal of Biological Chemistry, 2004, 279(10), 9642-9652).
It is known, that CDK9 regulates the NFκB-dependent transitional activity. With Compound 4, Compound 7 and Compound 30 studies were done, to evaluate their effect on NFκB-dependent transcriptional activity.

Sequence of CDK1 (P06493 whole entry, species assumed): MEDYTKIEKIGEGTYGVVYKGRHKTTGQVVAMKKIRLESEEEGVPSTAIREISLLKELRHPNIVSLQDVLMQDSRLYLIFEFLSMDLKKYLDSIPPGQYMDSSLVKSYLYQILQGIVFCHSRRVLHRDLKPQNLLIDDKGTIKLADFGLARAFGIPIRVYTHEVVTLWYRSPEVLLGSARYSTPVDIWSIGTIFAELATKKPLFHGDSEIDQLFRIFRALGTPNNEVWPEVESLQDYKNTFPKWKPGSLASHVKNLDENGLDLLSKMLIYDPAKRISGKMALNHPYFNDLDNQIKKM
Sequence of CDK1 (P14635 whole entry partner, species assumed): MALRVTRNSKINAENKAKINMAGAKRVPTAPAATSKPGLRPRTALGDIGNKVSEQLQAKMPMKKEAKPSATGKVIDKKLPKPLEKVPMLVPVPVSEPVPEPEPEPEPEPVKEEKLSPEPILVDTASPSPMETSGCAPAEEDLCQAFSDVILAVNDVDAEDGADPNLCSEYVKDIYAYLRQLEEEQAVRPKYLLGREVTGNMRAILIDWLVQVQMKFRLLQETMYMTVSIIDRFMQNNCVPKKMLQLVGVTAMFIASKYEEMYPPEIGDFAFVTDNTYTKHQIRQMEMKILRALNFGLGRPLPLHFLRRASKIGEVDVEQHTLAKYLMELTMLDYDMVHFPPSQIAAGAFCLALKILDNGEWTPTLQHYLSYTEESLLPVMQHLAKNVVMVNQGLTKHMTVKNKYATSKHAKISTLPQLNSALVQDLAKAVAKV

COc1ccc(-c2cc(Nc3ccc(NC(=O)c4ccc(N)cc4)cc3)ncn2)cc1 [Compound 6]
CDK1 (% inhibition) (CDK1): a (inhibition greater than 80%: a) | GSK-3β (% inhibition) (GSK-3β): b (inhibition between 80 and 50%: b) | HCMV replication (in words) (HCMV strain AD169): showed inhibition | PDGFR (% inhibition) (PDGFR): c (inhibition between 50 and 30%: c) | c-Kit (% inhibition) (c-Kit): b (inhibition between 80 and 50%: b) | p56 Lck (% inhibition) (p56 Lck): c (inhibition between 50 and 30%: c)

NC(=O)c1ccc(Nc2cc(-c3ccccc3OCc3ccccc3)ncn2)cc1 [Compound 95]
EGFR (% inhibition) (EGFR): b (inhibition between 80 and 50%: b) | CDK1 (% inhibition) (CDK1): a (inhibition greater than 80%: a) | GSK-3β (% inhibition) (GSK-3β): a (inhibition greater than 80%: a) | PDGFR (% inhibition) (PDGFR): c (inhibition between 50 and 30%: c) | c-Src (% inhibition) (c-Src): b (inhibition between 80 and 50%: b) | p56 Lck (% inhibition) (p56 Lck): b (inhibition between 80 and 50%: b)

COc1ccccc1-c1cc(Nc2ccc(C(=O)N[C@@H]3CCCC[C@H]3N)cc2)ncn1 (racemic) [Compound 83]
EGFR (% inhibition) (EGFR): b (inhibition between 80 and 50%: b) | CDK1 (% inhibition) (CDK1): a (inhibition greater than 80%: a) | Abl (% inhibition) (Abl): c (inhibition between 50 and 30%: c) | GSK-3β (% inhibition) (GSK-3β): c (inhibition between 50 and 30%: c) | cMet (% inhibition) (cMet): b (inhibition between 80 and 50%: b) | PDGFR (% inhibition) (PDGFR): b (inhibition between 80 and 50%: b) | c-Kit (% inhibition) (c-Kit): b (inhibition between 80 and 50%: b) | c-Src (% inhibition) (c-Src): b (inhibition between 80 and 50%: b) | p56 Lck (% inhibition) (p56 Lck): b (inhibition between 80 and 50%: b)

COc1ccccc1-c1cc(Nc2ccc(NC(=O)C3CCCN(C)C3)cc2)ncn1 (stereo not shown) [Compound 87]
EGFR (% inhibition) (EGFR): a (inhibition greater than 80%: a) | CDK1 (% inhibition) (CDK1): a (inhibition greater than 80%: a) | Abl (% inhibition) (Abl): b (inhibition between 80 and 50%: b) | cMet (% inhibition) (cMet): c (inhibition between 50 and 30%: c) | PDGFR (% inhibition) (PDGFR): b (inhibition between 80 and 50%: b) | RSK1 (% inhibition) (RSK1): b (inhibition between 80 and 50%: b) | c-Kit (% inhibition) (c-Kit): b (inhibition between 80 and 50%: b) | p56 Lck (% inhibition) (p56 Lck): b (inhibition between 80 and 50%: b)

CN1CC[C@H](c2c(O)cc(O)c3c(=O)cc(-c4ccccc4Cl)oc23)[C@H](O)C1 [flavopiridol, reference compound]
HBV replication (in words) (HBV): inhibits replication

Nc1ccc(C(=O)Nc2ccc(Nc3cc(-c4ccccc4OCc4ccccc4)ncn3)cc2)cc1 [Compound 4]
EGFR (% inhibition) (EGFR): c (inhibition between 50 and 30%: c) | CDK1 (% inhibition) (CDK1): a (inhibition greater than 80%: a) | inhibition of NFκB (in words, compared with Compound 30) [1]: less effectively | EC50 ([1]; titration): ~2 µM | GSK-3β (% inhibition) (GSK-3β): a (inhibition greater than 80%: a) | HCMV replication (in words) (HCMV strain AD169): showed inhibition | p56 Lck (% inhibition) (p56 Lck): a (inhibition greater than 80%: a)
